Experimental data as given in patent publication US9809583B2 (priority 2014, dated 2017).
Read-outs that look alike come from different tables or passages of the source.

Tests used:
[1] = molecular target: T1, androgen receptor (hAR) (Homo sapiens (Human), UniProt P10275); assay: biochemical; type: binding
Experimental: In order to examine binding ability of the agonists of the present invention to androgen receptors, the following in-vitro experiment was performed. African green monkey kidney fibroblast-like cell line, COS-7 (ATCC, #CRL-1651) was seeded in a 48-well plate at a density of 2.5×10^4 cells/well, and cultured for 24 hours. Then, a plasmid hAR-mixed medium was added thereto. […] Thereafter, the cells were lysed and the amount of [3H]MIB bound to the intracellular androgen receptors was measured using a radiation dosimeter.

[2] = molecular target: T1, androgen receptor (hAR); assay: Test of transcriptional activity (hAR / ARE-Luc dual-luciferase assay in CHO cells); type: cell-based; conditions: CHO cells with hAR and ARE-Luc, 24 hours, 10 nM DHT = 100%
Procedure, shortened: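 Compound at 0.1˜10,000 nM applied for 24 h to CHO cells carrying transfected human AR and an ARE-driven luciferase reporter. Cells were grown 24 h before transfection; readout was dual-luciferase luminescence.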

[3] = test system: castrated male rats; assay: Efficacy test in castrated male rat (Hershberger assay); type: in vivo, SD (Sprague-Dawley) rat; conditions: castrated male SD rats, oral once a day for 14 days
Experimental: SD (Sprague-Dawley) male rats (7-week-old) were castrated under ketamine/xylazine anesthesia, and 5 rats were randomly assigned to one group. From the next day, the agonists were dissolved in a vehicle solution and orally administered at a dose of 5 ml per kg once a day for 14 days. As the vehicle, DMSO, Co-solvent, and DW were prepared at a ratio of 4:80:16 (v/v/v), and Co-solvent was prepared by mixing PEG400, Ethanol, and Tween 80 at a ratio of 85:10:5 (v/v/v). 24 hours after last administration of the drug, their body weight was measured and killed. Thereafter, levator ani muscle, ventral prostate, and seminal vesicles were removed and weighed (Hershberger assay). The following Table 6 represents the result of the efficacy test in castrated male rats.

[4] = read-out: EC50 [nM] (mean ± SE)

T1 sequence (P10275 whole entry): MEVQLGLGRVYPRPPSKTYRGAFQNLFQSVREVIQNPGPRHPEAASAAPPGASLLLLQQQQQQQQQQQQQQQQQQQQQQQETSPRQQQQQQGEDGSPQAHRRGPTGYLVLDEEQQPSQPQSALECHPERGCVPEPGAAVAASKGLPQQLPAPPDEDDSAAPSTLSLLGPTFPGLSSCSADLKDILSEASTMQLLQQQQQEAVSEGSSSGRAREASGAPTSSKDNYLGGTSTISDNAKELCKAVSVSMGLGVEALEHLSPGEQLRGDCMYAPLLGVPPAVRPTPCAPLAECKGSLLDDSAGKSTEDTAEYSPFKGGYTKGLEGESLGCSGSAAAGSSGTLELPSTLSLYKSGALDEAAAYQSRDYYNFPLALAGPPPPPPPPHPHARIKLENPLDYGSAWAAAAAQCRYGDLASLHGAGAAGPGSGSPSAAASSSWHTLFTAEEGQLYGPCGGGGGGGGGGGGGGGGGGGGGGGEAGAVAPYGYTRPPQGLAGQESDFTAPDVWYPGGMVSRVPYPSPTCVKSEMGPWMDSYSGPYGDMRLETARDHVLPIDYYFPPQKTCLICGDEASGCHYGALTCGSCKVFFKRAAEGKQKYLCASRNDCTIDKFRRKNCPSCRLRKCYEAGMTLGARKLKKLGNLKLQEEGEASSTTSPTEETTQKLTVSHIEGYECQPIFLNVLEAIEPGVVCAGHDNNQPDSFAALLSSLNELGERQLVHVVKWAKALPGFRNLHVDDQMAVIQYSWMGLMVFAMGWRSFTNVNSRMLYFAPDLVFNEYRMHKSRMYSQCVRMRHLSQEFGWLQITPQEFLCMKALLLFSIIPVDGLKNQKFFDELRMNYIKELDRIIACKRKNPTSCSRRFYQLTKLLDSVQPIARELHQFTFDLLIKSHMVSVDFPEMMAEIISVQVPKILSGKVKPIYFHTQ

Row | Compound | levator ani muscle weight % relative to intact control group ([3]; 0.1 mg/kg) [%] | seminal vesicles weight % relative to intact control group ([3]; 0.1 mg/kg) [%] | levator ani muscle weight % relative to intact control group ([3]; 0.3 mg/kg) [%] | seminal vesicles weight % relative to intact control group ([3]; 0.3 mg/kg) [%] | ventral prostate weight % relative to intact control group ([3]; 0.3 mg/kg) [%] | levator ani muscle weight % relative to intact control group ([3]; 1 mg/kg) [%] | seminal vesicles weight % relative to intact control group ([3]; 1 mg/kg) [%] | ventral prostate weight % relative to intact control group ([3]; 1 mg/kg) [%] | levator ani muscle weight % relative to intact control group ([3]; 3 mg/kg) [%] | seminal vesicles weight % relative to intact control group ([3]; 3 mg/kg) [%] | ventral prostate weight % relative to intact control group ([3]; 3 mg/kg) [%] | levator ani muscle weight % relative to intact control group ([3]; 10 mg/kg) [%] | seminal vesicles weight % relative to intact control group ([3]; 10 mg/kg) [%] | ventral prostate weight % relative to intact control group ([3]; 10 mg/kg) [%] | levator ani muscle weight % relative to intact control group ([3]; 30 mg/kg) [%] | seminal vesicles weight % relative to intact control group ([3]; 30 mg/kg) [%] | ventral prostate weight % relative to intact control group ([3]; 30 mg/kg) [%] | levator ani muscle weight % relative to intact control group ([3]; 100 mg/kg) [%] | seminal vesicles weight % relative to intact control group ([3]; 100 mg/kg) [%] | ventral prostate weight % relative to intact control group ([3]; 100 mg/kg) [%] | also measured
1 | N#Cc1ccc(COC[C@H]2CN(c3ccc(C#N)c(C(F)(F)F)c3)[C@H](C(F)(F)F)O2)cc1 [Example 4, 4-((2S,5R)-5-(((4-cyanobenzyl)oxy)methyl)-2-(trifluoromethyl)oxazolidin-3-yl)-2-(trifluoromethyl)benzonitrile] | – | – | – | – | – | – | – | – | – | – | – | – | – | – | – | – | – | – | – | – | IC50 ([1]; 1 nM [3H]MIB, hAR-transfected COS-7 cells, 2 hours, read-out: IC50 [nM] (mean ± SE)): 657 nM
2 | N#Cc1ccc(OC[C@H]2CN(c3ccc(C#N)c(C(F)(F)F)c3)[C@@H](C(F)(F)F)O2)cc1 [Example 5, 4-((2R,5R)-5-((4-cyanophenoxy)methyl)-2-(trifluoromethyl)oxazolidin-3-yl)-2-(trifluoromethyl)benzonitrile] | – | – | – | – | – | – | – | – | – | – | – | – | – | – | – | – | – | – | – | – | IC50 [1]: 91.6 nM
3 | N#Cc1ccc(N2C[C@@H](COc3ccc(C(=O)O)cc3)O[C@@H]2C(F)(F)F)cc1C(F)(F)F [Example 9, 4-(((2R,5S)-3-(4-cyano-3-(trifluoromethyl)phenyl)-2-(trifluoromethyl)oxazolidin-5-yl)methoxy)benzoic acid] | – | – | – | – | – | – | – | – | – | – | – | – | – | – | – | – | – | – | – | – | IC50 [1]: 367 nM
4 | N#Cc1ccc(OC[C@@H]2CN(c3ccc(C#N)c(C(F)(F)F)c3)[C@@H](C(F)(F)F)O2)cn1 [Example 44, 5-(((2R,5S)-3-(4-cyano-3-(trifluoromethyl)phenyl)-2-(trifluoromethyl)oxazolidin-5-yl)methoxy)picolinonitrile] | 43.3 ± 8.1 | 6.7 ± 1.5 | 66.6 ± 8.7 | 16.9 ± 6.7 | 13.6 ± 5.0 | 82.4 ± 10.2 | 37.9 ± 4.3 | 26.1 ± 5.2 | 92.1 ± 6.5 | 54.5 ± 11.9 | 38.7 ± 8.3 | 87.0 ± 7.5 | 46.1 ± 10.8 | 28.2 ± 5.5 | 74.2 ± 2.8 | 49.6 ± 6.0 | 34.7 ± 4.1 | 90.5 ± 6.5 | 72.4 ± 14.6 | 39.9 ± 4.7 | EC50 ([2]; EC50 [nM] (mean ± SE)): 2.6 ± 0.4 nM; ventral prostate weight % relative to intact control group ([3]; 0.1 mg/kg): 7.0 ± 3.2%
5 | COC(=O)N1CCN(C(=O)[C@@H]2CN(c3ccc(C#N)c(C(F)(F)F)c3)[C@@H](C(F)(F)F)O2)CC1 [Example 173, methyl 4-((2R,5S)-3-(4-cyano-3-(trifluoromethyl)phenyl)-2-(trifluoromethyl)oxazolidine-5-carbonyl)piperazine-1-carboxylate] | 15.0 ± 1.2 | 1.3 ± 0.3 | 37.5 ± 2.3 | 2.9 ± 0.3 | 3.5 ± 0.5 | 61.1 ± 9.9 | 5.9 ± 2.1 | 9.1 ± 2.1 | 69.9 ± 3.6 | 20.3 ± 4.8 | 12.4 ± 3.5 | 93.0 ± 11.0 | 34.5 ± 4.0 | 24.4 ± 2.0 | 91.4 ± 8.2 | 45.5 ± 8.6 | 33.2 ± 3.3 | 99.5 ± 13.0 | 52.8 ± 10.6 | 48.6 ± 9.3 | EC50 ([2]; EC50 [nM] (mean ± SE)): 5.34 nM; levator ani muscle weight % relative to intact control group ([3]; 0.03 mg/kg): 9.8 ± 0.6%; seminal vesicles weight % relative to intact control group ([3]; 0.03 mg/kg): 1.3 ± 0.4%; ventral prostate weight % relative to intact control group ([3]; 0.03 mg/kg): 0.6 ± 0.1%; ventral prostate weight % relative to intact control group ([3]; 0.1 mg/kg): 3.2 ± 0.6%
6 | (2R,5S)-3-(3-chloro-4-cyanophenyl)-N-(2-chloropyridin-4-yl)-2-(trifluoromethyl)oxazolidine-5-carboxamide [Example 136] | 4.5 ± 0.9 | −0.4 ± 0.1 | 10.0 ± 0.8 | 0.8 ± 0.1 | 1.2 ± 0.3 | 29.1 ± 3.3 | 0.9 ± 0.2 | 2.6 ± 0.4 | 36.6 ± 3.4 | 2.4 ± 0.7 | 4.1 ± 0.9 | 61.8 ± 3.1 | 11.0 ± 3.6 | 10.5 ± 3.7 | 81.4 ± 10.9 | 35.8 ± 14.4 | 25.4 ± 7.8 | 98.5 ± 7.7 | 57.8 ± 17.9 | 42.1 ± 7.5 | EC50 [2, 4]: 5.07 nM; levator ani muscle weight % relative to intact control group ([3]; 0.03 mg/kg): 3.7 ± 0.8%; seminal vesicles weight % relative to intact control group ([3]; 0.03 mg/kg): −0.1 ± 0.0%; ventral prostate weight % relative to intact control group ([3]; 0.03 mg/kg): 1.7 ± 0.5%; ventral prostate weight % relative to intact control group ([3]; 0.1 mg/kg): −0.6 ± 0.3%
7 | (2R,5S)-N-(4-acetamidophenyl)-3-(3-chloro-4-nitrophenyl)-2-(trifluoromethyl)oxazolidine-5-carboxamide [Example 123] | 7.00 ± 0.7 | 0.2 ± 0.0 | 14.7 ± 1.5 | 0.1 ± 0.0 | 1.6 ± 0.2 | 23.0 ± 1.1 | 0.5 ± 0.1 | 0.7 ± 0.2 | 40.2 ± 4.2 | 2.8 ± 1.2 | 5.6 ± 1.9 | 58.7 ± 4.1 | 11.0 ± 2.3 | 7.9 ± 2.2 | 78.9 ± 4.0 | 30.5 ± 5.7 | 23.0 ± 2.9 | 88.5 ± 4.7 | 58.7 ± 10.8 | 39.0 ± 9.8 | EC50 [2, 4]: 7.34 nM; levator ani muscle weight % relative to intact control group ([3]; 0.03 mg/kg): 3.5 ± 0.5%; seminal vesicles weight % relative to intact control group ([3]; 0.03 mg/kg): 0.3 ± 0.0%; ventral prostate weight % relative to intact control group ([3]; 0.03 mg/kg): 0.5 ± 0.1%
